Results: ChEMBL document CHEMBL1137113, “A convenient and biogenetic type synthesis of few naturally occurring chromeno dihydrochalcones and their in vitro antileishmanial activity” (2004)
Active and inactive are the calls of the source. The calls are words filed in the database; no cut-off is given here.

Tests used:
Leishmania donovani [1] = assay: In-vitro antileishmanial activity was tested against extracellular promastigotes of Leishmania donovani at dose of 50 ug/mL; IA is inactive; format: functional, organism-based
Leishmania donovani [2] = assay: In-vitro antileishmanial activity was tested against intracellular amastigotes of Leishmania donovani at dose 50 ug/mL; format: functional
Leishmania donovani [3] = assay: In-vitro antileishmanial activity was tested against extracellular promastigotes of Leishmania donovani at dose of 50 ug/mL; format: functional
Leishmania donovani [4] = assay: In-vitro antileishmanial activity was tested against intracellular amastigotes of Leishmania donovani at dose 50 ug/mL; Toxic; format: functional, organism-based
Leishmania donovani [5] = assay: In-vitro antileishmanial activity was tested against intracellular amastigotes of Leishmania donovani at dose 50 ug/mL; IA is inactive; format: functional, organism-based
Leishmania donovani [6] = assay: In-vitro antileishmanial activity was tested against extracellular promastigotes of Leishmania donovani at dose of 5 ug/mL; format: functional
Leishmania donovani [7] = assay: In-vitro antileishmanial activity was tested against intracellular amastigotes of Leishmania donovani at dose 5 ug/mL; format: functional

Compound	inhibition at 50 µg/mL (Leishmania donovani [3]) [%]	inhibition at 50 µg/mL (Leishmania donovani [2]) [%]	also measured
Stibanate	–	–	inhibition (Leishmania donovani [1]): inactive; inhibition (Leishmania donovani [2]): 85%
CC1(C)C=Cc2c(ccc(C(=O)CCc3ccc(O)cc3)c2O)O1	89	–	inhibition (Leishmania donovani [4]): Toxic
COc1ccc(/C=C/C(=O)c2ccc(O)cc2O)cc1	60	15	–
CC1(C)C=Cc2c(ccc(C(=O)CCc3ccc(O)c(O)c3)c2O)O1	30	–	inhibition (Leishmania donovani [5]): inactive
CC1(C)C=Cc2c(ccc(C(=O)/C=C/c3ccc(O)cc3)c2O)O1	84	74	–
COc1ccc(CCC(=O)c2ccc3c(c2O)C=CC(C)(C)O3)cc1	78	47	–
COc1ccc(CCC(=O)c2ccc3c(c2O)C=CC(C)(C)O3)cc1OC	–	22	inhibition (Leishmania donovani [1]): inactive
N=C(N)c1ccc(OCCCCCOc2ccc(C(=N)N)cc2)cc1 [PENTAMIDINE]	–	–	inhibition at 5 µg/mL (Leishmania donovani [6]): 97%; inhibition at 5 µg/mL (Leishmania donovani [7]): 50%
COc1ccc(/C=C/C(=O)c2ccc3c(c2O)C=CC(C)(C)O3)cc1	85	53	–
COc1ccc(CCC(=O)c2ccc(O)cc2O)cc1OC	79	–	inhibition (Leishmania donovani [4]): Toxic
